PubChem BioAssay AID330 (DTP/NCI, 2004)
“And” between values parts separate entries of the source, which are not always exact repeats. Equal values may be shown once. Inconclusive results and toxic doses are left out. How the source made its calls: active means survival T/C of 150% or more; inactive means T/C below 125% in these data.

Tested on: P388 leukemia ip, CD2F1 mice, survival T/C
Assay: NCI In Vivo Anticancer Drug Screen. Data for tumor model P388 Leukemia (intraperitoneal) in CD2F1 (CDF1) mice
Conditions: endpoint: median survival time, higher = longer survival
Outline: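 Mice carrying the transplanted tumor received test compound or vehicle. Survival was recorded in each group, and the value is the treated-group measurement divided by that of the vehicle-treated control group.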

[1] = dose: 50.0 mg/kg/injection, schedule: Q01DX009 (ip), vehicle: Klucel (hydroxypropylcellulose) (HPC)
[2] = dose: 100.0 mg/kg/injection, schedule: Q01DX009 (ip), vehicle: Klucel (hydroxypropylcellulose) (HPC)
[3] = dose: 50.0 mg/kg/injection, schedule: Q01DX005 (ip), vehicle: saline with Tween-80
[4] = dose: 100.0 mg/kg/injection, schedule: Q01DX005 (ip), vehicle: saline with Tween-80
[5] = dose: 200.0 mg/kg/injection, schedule: Q01DX005 (ip), vehicle: saline with Tween-80
[6] = dose: 60.0 mg/kg/injection, schedule: Q01DX005 (ip), vehicle: saline
[7] = dose: 120.0 mg/kg/injection, schedule: Q01DX005 (ip), vehicle: saline
[8] = dose: 240.0 mg/kg/injection, schedule: Q01DX005 (ip), vehicle: saline
[9] = dose: 25.0 mg/kg/injection, schedule: Q01DX009 (ip), vehicle: saline with Tween-80
[10] = dose: 50.0 mg/kg/injection, schedule: Q01DX009 (ip), vehicle: saline with Tween-80
[11] = dose: 50.0 mg/kg/injection, schedule: Q01DX009 (ip), vehicle: other
[12] = dose: 100.0 mg/kg/injection, schedule: Q01DX009 (ip), vehicle: other
[13] = dose: 200.0 mg/kg/injection, schedule: Q01DX009 (ip), vehicle: other
[14] = dose: 100.0 mg/kg/injection, schedule: Q04DX002 (ip), vehicle: saline with Tween-80
[15] = dose: 60.0 mg/kg/injection, schedule: Q01DX005 (ip), vehicle: saline with Tween-80
[16] = dose: 100.0 mg/kg/injection, schedule: Q01DX009 (ip), vehicle: saline with Tween-80
[17] = dose: 200.0 mg/kg/injection, schedule: Q01DX009 (ip), vehicle: saline with Tween-80

Measured: T/C

Cc1cc2c(cc1C)NC1=C(N2)OC(c2c3ccccc3cc3ccccc23)C1=O (stereo not drawn)
inactive: dose: 60.0 mg/kg/injection, schedule: Q01DX005 (ip), vehicle: Klucel (hydroxypropylcellulose) (HPC) 92 % of control | dose: 120.0 mg/kg/injection, schedule: Q01DX005 (ip), vehicle: Klucel (hydroxypropylcellulose) (HPC) 88 % of control | dose: 240.0 mg/kg/injection, schedule: Q01DX005 (ip), vehicle: Klucel (hydroxypropylcellulose) (HPC) 90 % of control

CSc1nc2ccc(CN3C(=O)c4ccccc4C3=O)cc2s1
inactive: [1] 88 % of control | [2] 98 % of control | dose: 200.0 mg/kg/injection, schedule: Q01DX009 (ip), vehicle: Klucel (hydroxypropylcellulose) (HPC) 91 % of control

CC1CC=CCC1C1OC(C)C(C)O1 (stereo not drawn)
inactive: [3] 110 % of control | [4] 106 % of control | [5] 109 % of control

Cc1ccc(SSc2nnnn2C)cc1
inactive: [1] 100 % of control | [2] 88 % of control

CCOC(=O)CCc1cnc[nH]1
inactive: [6] 108 % of control | [7] 106 % of control | [8] 98 % of control

CCN(CC)CCCNc1nnnc2ccccc12
inactive: dose: 100.0 mg/kg/injection, schedule: Q04DX002 (ip), vehicle: saline 103 % of control | dose: 200.0 mg/kg/injection, schedule: Q04DX002 (ip), vehicle: saline 90 % of control

C=CCc1ccccc1NC(C)C(=O)OCC (stereo not drawn)
inactive: [3] 107 % of control | [4] 107 % of control | [5] 107 % of control

NNC(=O)C1CCCC1
inactive: dose: 6.25 mg/kg/injection, schedule: Q01DX009 (ip), vehicle: saline with Tween-80 113 % of control | dose: 12.5 mg/kg/injection, schedule: Q01DX009 (ip), vehicle: saline with Tween-80 104 % of control | [9] 100 % of control | [10] 113 % of control

N#C/C(=C\c1cccc2ccccc12)c1ccc(Cl)cc1
inactive: dose: 50.0 mg/kg/injection, schedule: Q04DX003 (ip), vehicle: saline with Tween-80 94 % of control | dose: 100.0 mg/kg/injection, schedule: Q04DX003 (ip), vehicle: saline with Tween-80 97 % of control | dose: 200.0 mg/kg/injection, schedule: Q04DX003 (ip), vehicle: saline with Tween-80 103 % of control | dose: 400.0 mg/kg/injection, schedule: Q04DX003 (ip), vehicle: saline with Tween-80 97 % of control

CNC(=O)OCC1=C(Sc2ccccc2)C(=O)C(OC)=C(OC)C1=O
inactive: dose: 12.5 mg/kg/injection, schedule: Q01DX005 (ip), vehicle: saline with Tween-80 106 % of control | dose: 25.0 mg/kg/injection, schedule: Q01DX005 (ip), vehicle: saline with Tween-80 108 % of control | [3] 103 % of control and 110 % of control

O=NN(CC(=O)OCc1ccccc1)NC(=O)OCc1ccccc1
inactive: dose: 12.5 mg/kg/injection, schedule: Q01DX009 (ip), vehicle: other 96 % of control | dose: 25.0 mg/kg/injection, schedule: Q01DX009 (ip), vehicle: other 97 % of control | [11] 94 % of control | [12] 96 % of control | [13] 96 % of control

COc1ccc(C=C2C(=O)C=CC2=O)cc1
inactive: dose: 1.25 mg/kg/injection, schedule: Q04DX002 (ip), vehicle: saline with Tween-80 106 % of control | dose: 2.5 mg/kg/injection, schedule: Q04DX002 (ip), vehicle: saline with Tween-80 97 % of control | dose: 5.0 mg/kg/injection, schedule: Q04DX002 (ip), vehicle: saline with Tween-80 99 % of control

CC(C)(C)C1CCC(=NSC(c2ccccc2)(c2ccccc2)c2ccccc2)CC1 (stereo not drawn)
inactive: [14] 95 % of control | dose: 200.0 mg/kg/injection, schedule: Q04DX002 (ip), vehicle: saline with Tween-80 87 % of control | dose: 400.0 mg/kg/injection, schedule: Q04DX002 (ip), vehicle: saline with Tween-80 89 % of control

O=C(Nc1ccc(Cl)cc1)Nc1nnc2nc(CC(=O)c3cccc([N+](=O)[O-])c3Cl)c(=O)[nH]n12
inactive: [15] 99 % of control | dose: 120.0 mg/kg/injection, schedule: Q01DX005 (ip), vehicle: saline with Tween-80 101 % of control | dose: 240.0 mg/kg/injection, schedule: Q01DX005 (ip), vehicle: saline with Tween-80 100 % of control

N#CNc1c2ccccc2nc2ccccc12
inactive: dose: 15.0 mg/kg/injection, schedule: Q01DX005 (ip), vehicle: saline with Tween-80 101 % of control | dose: 30.0 mg/kg/injection, schedule: Q01DX005 (ip), vehicle: saline with Tween-80 97 % of control | [15] 99 % of control and 100 % of control

O=C(O)C1CCC[N-]C1.O=C(O)C1CCC[N-]C1.[Cl][Pt+2][Cl] (stereo not drawn)
inactive: dose: 5.0 mg/kg/injection, schedule: Q01DX009 (ip), vehicle: saline with Tween-80 100 % of control | dose: 10.0 mg/kg/injection, schedule: Q01DX009 (ip), vehicle: saline with Tween-80 104 % of control | dose: 20.0 mg/kg/injection, schedule: Q01DX009 (ip), vehicle: saline with Tween-80 109 % of control

O=C(O)C(Cc1c[nH]c2ccc(O)cc12)NCC1(O)OCC(O)C(O)C1O (stereo not drawn)
inactive: [6] 97 % of control | [7] 99 % of control | [8] 98 % of control

CSC(=S)/C=C1\SC=CN1C
inactive: dose: 25.0 mg/kg/injection, schedule: Q04DX002 (ip), vehicle: saline with Tween-80 96 % of control | dose: 50.0 mg/kg/injection, schedule: Q04DX002 (ip), vehicle: saline with Tween-80 100 % of control | [14] 100 % of control

CC(C)c1ccc(N2C=Nc3ccc(C(C)C)cc3C2)cc1
inactive: [11] 92 % of control | [12] 99 % of control | [13] 99 % of control

C/C=C1/CN2CCC1CC2C(O)c1ccnc2ccc(OCCO)cc12 (stereo not drawn)
inactive: dose: 50.0 mg/kg/injection, schedule: Q01DX005 (ip), vehicle: saline 97 % of control | dose: 100.0 mg/kg/injection, schedule: Q01DX005 (ip), vehicle: saline 93 % of control | dose: 200.0 mg/kg/injection, schedule: Q01DX005 (ip), vehicle: saline 94 % of control

O=C1CCSC(=S)N1c1ccc(F)cc1F
inactive: dose: 6.25 mg/kg/injection, schedule: Q01DX009 (ip), vehicle: saline 92 % of control | dose: 12.5 mg/kg/injection, schedule: Q01DX009 (ip), vehicle: saline 94 % of control | dose: 25.0 mg/kg/injection, schedule: Q01DX009 (ip), vehicle: saline 91 % of control | dose: 100.0 mg/kg/injection, schedule: Q01DX009 (ip), vehicle: saline 96 % of control | dose: 200.0 mg/kg/injection, schedule: Q01DX009 (ip), vehicle: saline 90 % of control | dose: 200.0 mg/kg/injection, schedule: Q01DX009 (ip), vehicle: suspension in saline 92 % of control

COC(=O)[C@@]12OC[C@]34[C@H]([C@@H](O)[C@@H]1O)[C@@]1(C)C=C(OC5OC(CO)C(O)C(O)C5O)C(=O)[C@@H](C)[C@@H]1C[C@H]3OC(=O)[C@H](OC(=O)/C=C(\C)C(C)C)[C@@H]24 (stereo partly drawn)
inactive: dose: 2.0 mg/kg/injection, schedule: Q01DX005 (ip), vehicle: saline + alcohol 100 % of control | dose: 4.0 mg/kg/injection, schedule: Q01DX005 (ip), vehicle: saline + alcohol 94 % of control | dose: 8.0 mg/kg/injection, schedule: Q01DX005 (ip), vehicle: saline + alcohol 94 % of control | dose: 16.0 mg/kg/injection, schedule: Q01DX005 (ip), vehicle: saline + alcohol 106 % of control | dose: 32.0 mg/kg/injection, schedule: Q01DX005 (ip), vehicle: saline + alcohol 111 % of control | dose: 64.0 mg/kg/injection, schedule: Q01DX005 (ip), vehicle: saline + alcohol 108 % of control

Nc1ccc2c(n1)NCC/C2=N\Nc1ccc(Br)cc1
inactive: [10] 103 % of control | [16] 104 % of control | [17] 106 % of control

CCc1ccc2c(c1)N(CCCN(CCCl)CCCl)c1ccccc1S2
inactive: dose: 0.78 mg/kg/injection, schedule: Q01DX009 (ip), vehicle: saline with Tween-80 106 % of control | dose: 1.56 mg/kg/injection, schedule: Q01DX009 (ip), vehicle: saline with Tween-80 101 % of control and 115 % of control
